{"source": "patent US10093611B2", "about": "“Benzocycloalkenes as antifungal agents” (Bayer Intellectual Property GmbH, priority 2010, dated 2018)", "key": {"[1]": {"test": "log P by HPLC on reversed-phase column (C 18), EEC Directive 79/831 Annex V.A8", "assay_type": "physicochemical", "settings": "C 18 reversed phase, 40° C., 0.1% aqueous formic acid and acetonitrile gradient", "description": "In table 1, the log P values were determined in accordance with EEC Directive 79/831 Annex V.A8 by HPLC (High Performance Liquid Chromatography) on a reversed-phase column (C 18), using the method described below: Temperature: 40° C.; Mobile phases: 0.1% aqueous formic acid and acetonitrile; linear gradient from 10% acetonitrile to 90% acetonitrile. Calibration was carried out using unbranched alkan-2-ones (comprising 3 to 16 carbon atoms) with known log P values (determination of the log P values by the retention times using linear interpolation between two successive alkanones). lambda-max-values were determined using UV-spectra from 200 nm to 400 nm and the peak values of the chromatographic signals."}, "Alternaria solani": {"test_system": "Alternaria solani", "test": "In vivo preventive test on Alternaria solani (tomato)", "settings": "500 ppm of active ingredient, evaluated 7 days after inoculation", "description": "EXAMPLE A: IN VIVO PREVENTIVE TEST ON ALTERNARIA SOLANI (TOMATO) Solvent: 49 parts by weight of N,N-dimethylformamide Emulsifier: 1 part by weight of Alkylarylpolyglycolether To produce a suitable preparation of active compound, 1 part by weight of active compound is mixed with the stated amounts of solvent and emulsifier, and the concentrate is diluted with water to the desired concentration. To test for preventive activity, young plants are sprayed with the preparation of active compound at the stated rate of application. One day after this treatment, the plants are inoculated with an aqueous spore suspension of Alternaria solani. The plants remain for one day in an incubation cabinet at approximately 22° C. and a relative atmospheric humidity of 100%. Then the plants are placed in an incubation cabinet at approximately 20° C. and a relative atmospheric humidity of 96%. The test is evaluated 7 days after the inoculation. 0% means an efficacy which corresponds to that of the control while an efficacy of 100% means that no disease is observed. Under these conditions, good (at least 80%) to total protection is observed at a dose of 500 ppm of active ingredient with the following compounds from table A: […]"}, "Leptosphaeria nodorum": {"test_system": "Leptosphaeria nodorum", "test": "In vivo preventive test on Leptosphaeria nodorum (wheat)", "settings": "500 ppm of active ingredient, evaluated 8 days after inoculation", "description": "EXAMPLE D: IN VIVO PREVENTIVE TEST ON LEPTOSPHAERIA NODORUM (WHEAT) Solvent: 49 parts by weight of N,N-dimethylacetamide Emulsifier: 1 part by weight of alkylaryl polyglycol ether To produce a suitable preparation of active compound, 1 part by weight of active compound or the compound combination is mixed with the stated amounts of solvent and emulsifier, and the concentrate is diluted with water to the desired concentration. To test for protective activity, young plants are sprayed with a preparation of active compound or active compound combination at the stated rate of application. After the spray coating has dried on, the plants are sprayed with a spore suspension of Leptosphaeria nodorum. The plants remain for 48 hours in an incubation cabinet at 20° C. and a relative atmospheric humidity of 100%. The plants are placed in a greenhouse at a temperature of approximately 22° C. and a relative atmospheric humidity of approximately 80%. The test is evaluated 8 days after the inoculation. 0% means an efficacy which corresponds to that of the control, while an efficacy of 100% means that no disease is observed. Under these conditions, good (at least 75%) to total protection is observed at a dose of 500 ppm of active ingredient with the following compounds from table D: Under the same conditions, excellent protection (greater than 94%) is observed at a dose of 500 ppm of active ingredient with compound 2, whereas poor protection (less than 30%) is observed with the isosteric analogue compound CMP1 claimed in WO-2009/016218 as in table D2."}, "Pyrenophora teres": {"test_system": "Pyrenophora teres", "test": "In vivo preventive test on Pyrenophora teres (barley)", "settings": "500 ppm of active ingredient, evaluated 7-9 days after inoculation", "description": "EXAMPLE F: IN VIVO PREVENTIVE TEST ON PYRENOPHORA TERES (BARLEY) Solvent: 49 parts by weight of N,N-dimethylformamide Emulsifier: 1 part by weight of Alkylarylpolyglycolether To produce a suitable preparation of active compound, 1 part by weight of active compound is mixed with the stated amounts of solvent and emulsifier, and the concentrate is diluted with water to the desired concentration. To test for preventive activity, young plants are sprayed with the preparation of active compound at the stated rate of application. One day after this treatment, the plants are inoculated with an aqueous spore suspension of Pyrenophora teres. The plants remain for 48 hours in an incubation cabinet at 22° C. and a relative atmospheric humidity of 100%. Then the plants are placed in a greenhouse at a temperature of approximately 20° C. and a relative atmospheric humidity of approximately 80%. The test is evaluated 7-9 days after the inoculation. 0% means an efficacy which corresponds to that of the untreated control while an efficacy of 100% means that no disease is observed. Under these conditions, high (at least 90%) to total protection is observed at a dose of 500 ppm of active ingredient with the following compounds from table F: […]"}, "Sphaerotheca fuliginea": {"test_system": "Sphaerotheca fuliginea", "test": "In vivo preventive test on Sphaerotheca fuliginea (cucumbers)", "settings": "500 ppm of active ingredient, evaluated 7 days after inoculation", "description": "EXAMPLE H: IN VIVO PREVENTIVE TEST ON SPHAEROTHECA FULIGINEA (CUCUMBERS) Solvent: 24.5 parts by weight of acetone • 24.5 parts by weight of N,N-dimethylacetamide Emulsifier: 1 part by weight of alkylaryl polyglycol ether To produce a suitable preparation of active compound, 1 part by weight of active compound is mixed with the stated amounts of solvent and emulsifier, and the concentrate is diluted with water to the desired concentration. To test for protect activity, young plants are sprayed with the preparation of active compound at the stated rate of application. After the spray coating has dried on, the plants are inoculated with an aqueous spore suspension of Sphaerotheca fuliginea. The plants are then placed in a greenhouse at approximately 23° C. and a relative atmospheric humidity of approximately 70%. The test is evaluated 7 days after the inoculation. 0% means an efficacy which corresponds to that of the untreated control, while an efficacy of 100% means that no disease is observed. Under these conditions, high (at least 90%) to total protection is observed at a dose of 100 ppm of active ingredient with the following compounds from table H: Under the same conditions, high protection (greater than 80%) is observed at a dose of 500 ppm of active ingredient with compound 7, whereas poor protection (less than 20%) is observed with the isosteric analogue compound CMP2 claimed in WO-2009/016218 as in table H2."}}}
{"smiles": "Cn1nc(C(F)F)c(C(=O)N(C2CC2)C2Cc3ccccc3C2)c1Cl", "note": "[Example 1]", "values": [{"measurement": "logP", "setting": "[1]", "result": 3.35}, {"measurement": "Efficacy", "setting": "Alternaria solani", "result": 89, "unit": "%"}]}
{"smiles": "Cn1nc(C(F)F)c(C(=O)N(C2CC2)C2Cc3ccccc3C2)c1F", "note": "[Example 2]", "values": [{"measurement": "Efficacy", "setting": "Leptosphaeria nodorum", "result": 94, "unit": "%"}, {"measurement": "Efficacy", "setting": "Leptosphaeria nodorum; listed as compound 2", "result": "greater than 94%"}, {"measurement": "logP", "setting": "[1]", "result": 3.19}, {"measurement": "Efficacy", "setting": "Alternaria solani", "result": 94, "unit": "%"}]}
{"smiles": "Cc1cc(C(=O)N(C2CC2)C2CCc3ccccc3C2)c(C)o1", "note": "(stereo not drawn) [Example 3]", "values": [{"measurement": "logP", "setting": "[1]", "result": 4.01}]}
{"smiles": "Cc1nn(C)c(F)c1C(=O)N(C1CC1)C1CCc2ccccc2C1", "note": "(stereo not drawn) [Example 4]", "values": [{"measurement": "logP", "setting": "[1]", "result": 3.00}, {"measurement": "Efficacy", "setting": "Pyrenophora teres", "result": 90, "unit": "%"}]}
{"smiles": "CCc1nn(C)c(F)c1C(=O)N(C1CC1)C1CCc2ccccc2C1", "note": "(stereo not drawn) [Example 5]", "values": [{"measurement": "Efficacy", "setting": "Leptosphaeria nodorum", "result": 78, "unit": "%"}, {"measurement": "logP", "setting": "[1]", "result": 3.35}, {"measurement": "Efficacy", "setting": "Alternaria solani", "result": 95, "unit": "%"}, {"measurement": "Efficacy", "setting": "Pyrenophora teres", "result": 95, "unit": "%"}]}
{"smiles": "Cn1cc(C(=O)N(C2CC2)C2CCc3ccccc3C2)c(C(F)F)n1", "note": "(stereo not drawn) [Example 6]", "values": [{"measurement": "logP", "setting": "[1]", "result": 3.08}, {"measurement": "Efficacy", "setting": "Alternaria solani", "result": 95, "unit": "%"}, {"measurement": "Efficacy", "setting": "Pyrenophora teres", "result": 100, "unit": "%"}]}
{"smiles": "Cn1nc(C(F)F)c(C(=O)N(C2CC2)C2CCc3ccccc3C2)c1F", "note": "(stereo not drawn) [Example 7]", "values": [{"measurement": "Efficacy", "setting": "Sphaerotheca fuliginea", "result": 80, "unit": "%"}, {"measurement": "Efficacy", "setting": "Sphaerotheca fuliginea; listed as compound 7", "result": "greater than 80%"}, {"measurement": "Efficacy", "setting": "Leptosphaeria nodorum", "result": 94, "unit": "%"}, {"measurement": "logP", "setting": "[1]", "result": 3.48}, {"measurement": "Efficacy", "setting": "Alternaria solani", "result": 100, "unit": "%"}, {"measurement": "Efficacy", "setting": "Pyrenophora teres", "result": 100, "unit": "%"}]}
{"smiles": "Cn1cc(C(=S)N(C2CC2)C2CCc3ccccc3C2)c(C(F)F)n1", "note": "(stereo not drawn) [Example 8]", "values": [{"measurement": "logP", "setting": "[1]", "result": 3.73}, {"measurement": "Efficacy", "setting": "Pyrenophora teres", "result": 95, "unit": "%"}]}
{"smiles": "Cn1nc(C(F)F)c(C(=S)N(C2CC2)C2CCc3ccccc3C2)c1F", "note": "(stereo not drawn) [Example 9]", "values": [{"measurement": "logP", "setting": "[1]", "result": 4.21}, {"measurement": "Efficacy", "setting": "Alternaria solani", "result": 93, "unit": "%"}, {"measurement": "Efficacy", "setting": "Pyrenophora teres", "result": 100, "unit": "%"}]}
{"smiles": "Cc1cc(C(=O)N(C2CC2)C(C)C2Cc3ccccc3C2)c(C)o1", "note": "(stereo not drawn) [Example 10]", "values": [{"measurement": "logP", "setting": "[1]", "result": 4.34}, {"measurement": "Efficacy", "setting": "Alternaria solani", "result": 95, "unit": "%"}, {"measurement": "Efficacy", "setting": "Pyrenophora teres", "result": 90, "unit": "%"}]}
{"smiles": "CC(C1CCc2ccccc2C1)N(C(=O)c1ccsc1I)C1CC1", "note": "(stereo not drawn) [Example 15]", "values": [{"measurement": "logP", "setting": "[1]", "result": 4.82}]}
{"smiles": "Cn1cc(C(=O)N(CC2Cc3ccccc3O2)C2CC2)c(C(F)F)n1", "note": "(stereo not drawn) [Example 18]", "values": [{"measurement": "logP", "setting": "[1]", "result": 2.54}, {"measurement": "Efficacy", "setting": "Pyrenophora teres", "result": 95, "unit": "%"}]}
{"smiles": "Cn1nc(C(F)F)c(C(=O)N(CC2Cc3ccccc3O2)C2CC2)c1F", "note": "(stereo not drawn) [Example 19]", "values": [{"measurement": "logP", "setting": "[1]", "result": 2.86}, {"measurement": "Efficacy", "setting": "Pyrenophora teres", "result": 100, "unit": "%"}]}
{"smiles": "Cn1nc(C(F)F)c(C(=O)N(CC2COc3ccccc3C2)C2CC2)c1F", "note": "(stereo not drawn) [Example 20]", "values": [{"measurement": "logP", "setting": "[1]", "result": 3.00}, {"measurement": "Efficacy", "setting": "Alternaria solani", "result": 80, "unit": "%"}, {"measurement": "Efficacy", "setting": "Pyrenophora teres", "result": 100, "unit": "%"}]}
{"smiles": "Cn1nc(C(F)F)c(C(=O)N(CC2Cc3ccccc3O2)C2CC2)c1Cl", "note": "(stereo not drawn) [Example 21]", "values": [{"measurement": "logP", "setting": "[1]", "result": 3.04}]}
